System: animal models of obesity-induced type 2 diabetes
Test: Treatment effect (body weight, insulin resistance, biomarkers), type 2 diabetes model
Type: in vivo, C57BL/6J mice
Conditions: ZnPP 0.25 mg/kg i.p. once a week for 4 weeks together with HO-1 inducer-encapsulated ATS/PLGA NPs 1 mg/kg i.v.; FIG. 9
Description: C57BL/6J mice were purchased from Orient Bio Inc. and acclimated for one week. From week 3, a 60% kcal high fat diet (HFD, Central Lab Animal, Inc.) was mixed with normal diet and fed. From week 6, only HFD was fed, and HFD was additionally fed for 8 weeks. In week 20, it was confirmed that the body weight reached 45 to 55 g, and the fasting blood glucose level also exceeded 250 mg/dl.
After constructing the animal models of obesity-induced type 2 diabetes and the animal models of obesity-induced non-alcoholic steatohepatitis, ATS/PLGA NPs in which 1 mg/kg of heme oxygenase-1 inducer was encapsulated were injected intravenously once a week for 4 weeks. Here, the results of a control administered intravenously with ATS/PLGA NPs (vehicle) in which 1 mg/kg of heme oxygenase-1 inducer was not encapsulated once a week for 4 weeks and a control administered intraperitoneally with 0.25 mg/kg of heme oxygenase-1 inhibitor (ZnPP) once a week for 4 weeks while intravenous administration with ATS/PLGA NPs in which 1 mg/kg of heme oxygenase-1 inducer was encapsulated once a week for 4 weeks were compared. The body weight was measured for 7 weeks, and then the mice were dissected to obtain mRNA and proteins from major organs such as the liver and adipose tissue for biomarker analysis.

C=CC1=C(C)c2cc3[n-]c(cc4[n-]c(cc5nc(cc1n2)C(C)=C5C=C)c(C)c4CCC(=O)O)c(CCC(=O)O)c3C.[Zn+2] [ZnPP]
Effect on body weight with co-administered HO-1 inhibitor: no effect
